Paper PMC8891185 (The Journal of Nutrition, 2021)

Columns and labels:
[1] = anemic infants; 5 mg/kg of Fe daily for 28 d; cited from earlier work
[2] = 9-mo-old, iron-replete children, cited from earlier work; for iron bioavailability from inhibitory WG cereal: PA:Fe 2.2:1, no added AA
[3] = iron-deficient infants; AA at a molar ratio of 2:1; cited from earlier work
[4] = adult men; without AA; consumed in 1 or separate whole-maize porridge meals; cited from earlier work
[5] = Fractional iron absorption

| bioavailability of iron when consumed in WG-oat cereal ([5]; WG-oat cereal with AA, nonsignificant difference between FeBG and Fefum) [%] | iron bioavailability in the noninhibitory reference meal ([5]; refined wheat reference meal with AA) [%] | Molecule | hemoglobin change [1] | iron bioavailability from inhibitory WG cereal [2] [%] | iron bioavailability from vegetable puree [2] [%] | bioavailability of iron as FeSO4 from refined wheat-based infant cereal, with dephytinization [3] [%] | bioavailability of iron as FeSO4 from refined wheat-based infant cereal, without dephytinization [3] [%] | iron bioavailability, times higher than FeSO4 [4] |
| --- | --- | --- | --- | --- | --- | --- | --- | --- |
|  |  | ferrous sulfate [FeSO4] | significant hemoglobin increases | 3.8 | 9.9 | 8.5 | 8.7 |  |
|  |  | NCC(=O)[O-].NCC(=O)[O-].[Fe+2] [FeBG, ferrous bisglycinate] | significant hemoglobin increases | 5.2 | 9 |  |  | 4−6 times |
| 9.2 | 12.1 | O=C([O-])/C=C/C(=O)[O-].[Fe+2] [Fefum, ferrous fumarate] |  |  |  |  |  |  |
